Data reported in the NIST ThermoML archive (doi:10.1021/acs.jced.5b00407).

Legend:
[1] = mn = molality of the nth substance listed, in mol/kg; conditions: 101.3 kPa, Liquid; for mass density: Vibrating tube method; for viscosity: Capillary tube (Ostwald / Ubbelohde) method
[2] = refractive index (Na D-line) (dimensionless); mn = molality of the nth substance listed, in mol/kg; conditions: 101.3 kPa, Liquid, Standard Abbe refractometry

O=C([O-])[C@H](O)[C@@H](O)[C@H](O[C@@H]1O[C@H](CO)[C@H](O)[C@H](O)[C@H]1O)[C@H](O)CO.[Na+] [sodium lactobionate] + O
Conditions | mass density, [1] [kg/m3] | refractive index, [2] | viscosity, [1] [mPa·s]
293.15 K, m1 = 0.0251 | – | 1.3331 | –
293.15 K, m1 = 0.0502 | – | 1.3344 | –
293.15 K, m1 = 0.0753 | – | 1.336 | –
293.15 K, m1 = 0.1 | – | 1.3376 | –
293.15 K, m1 = 0.126 | – | 1.3392 | –
293.15 K, m1 = 0.151 | – | 1.3406 | –
293.15 K, m1 = 0.176 | – | 1.3421 | –
293.15 K, m1 = 0.201 | – | 1.3435 | –
298.15 K, m1 = 0.0251 | – | 1.3326 | –
298.15 K, m1 = 0.0502 | – | 1.3339 | –
298.15 K, m1 = 0.0753 | – | 1.3354 | –
298.15 K, m1 = 0.1 | – | 1.337 | –
298.15 K, m1 = 0.126 | – | 1.3385 | –
298.15 K, m1 = 0.151 | – | 1.34 | –
298.15 K, m1 = 0.176 | – | 1.3415 | –
298.15 K, m1 = 0.201 | – | 1.343 | –
303.15 K, m1 = 0.0251 | – | 1.3321 | –
303.15 K, m1 = 0.0502 | – | 1.3334 | –
303.15 K, m1 = 0.0753 | – | 1.3348 | –
303.15 K, m1 = 0.1 | – | 1.3364 | –
303.15 K, m1 = 0.126 | – | 1.3378 | –
303.15 K, m1 = 0.151 | – | 1.3393 | –
303.15 K, m1 = 0.176 | – | 1.3409 | –
303.15 K, m1 = 0.201 | – | 1.3425 | –
308.15 K, m1 = 0.0251 | – | 1.3316 | –
308.15 K, m1 = 0.0502 | – | 1.3328 | –
308.15 K, m1 = 0.0753 | – | 1.3342 | –
308.15 K, m1 = 0.1 | – | 1.3357 | –
308.15 K, m1 = 0.126 | – | 1.3371 | –
308.15 K, m1 = 0.151 | – | 1.3387 | –
308.15 K, m1 = 0.176 | – | 1.3403 | –
308.15 K, m1 = 0.201 | – | 1.342 | –
313.15 K, m1 = 0.0251 | – | 1.331 | –
313.15 K, m1 = 0.0502 | – | 1.3322 | –
313.15 K, m1 = 0.0753 | – | 1.3335 | –
313.15 K, m1 = 0.1 | – | 1.335 | –
313.15 K, m1 = 0.126 | – | 1.3364 | –
313.15 K, m1 = 0.151 | – | 1.338 | –
313.15 K, m1 = 0.176 | 1027.2 | 1.3397 | –
313.15 K, m1 = 0.201 | 1031.8 | 1.3415 | –
318.15 K, m1 = 0.0251 | – | 1.3304 | 0.6029
318.15 K, m1 = 0.0502 | 1001.6 | 1.3316 | 0.6136
318.15 K, m1 = 0.0753 | 1006.5 | 1.3329 | 0.6313
318.15 K, m1 = 0.1 | 1011.5 | 1.3343 | 0.6556
318.15 K, m1 = 0.126 | 1015.9 | 1.3357 | 0.6711
318.15 K, m1 = 0.151 | 1020.5 | 1.3373 | 0.6951
318.15 K, m1 = 0.176 | 1025.3 | 1.3391 | 0.7157
318.15 K, m1 = 0.201 | 1030 | 1.3409 | 0.7469
323.15 K, m1 = 0.0251 | – | 1.3297 | 0.5523
323.15 K, m1 = 0.0502 | 999.8 | 1.3309 | 0.5625
323.15 K, m1 = 0.0753 | 1004.7 | 1.3322 | 0.5789
323.15 K, m1 = 0.1 | 1009.5 | 1.3336 | 0.6009
323.15 K, m1 = 0.126 | 1013.9 | 1.3349 | 0.6151
323.15 K, m1 = 0.151 | 1018.4 | 1.3365 | 0.6372
323.15 K, m1 = 0.176 | 1023.2 | 1.3384 | 0.6565
323.15 K, m1 = 0.201 | 1028 | 1.3404 | 0.6849
